Source: patent US20070244111A1, “Pyrazolopyrimidines” (priority 2003, published 2007)
Like-named read-outs stand apart in the source and are kept apart here.

Test: log P determination by HPLC (EEC Directive 79/831 Annex V. A8)
Assay type: physicochemical
Settings: HPLC gradient method
Description: The log P values were determined in accordance with EEC Directive 79/831 Annex V. A8 by HPLC (gradient method, acetonitrile/0.1% aqueous phosphoric acid).

[1] = gradient of acetonitrile/0.1% aqueous phosphoric acid, acetonitrile/0.1% aqueous phosphoric acid (pH 2.3), read-out: HPLC: log P

Row | SMILES | chromatographic logP [1] | further results
1 | C#Cc1cnn2c(N3CCC(C)CC3)c(-c3ccc(F)cc3Cl)c(Cl)nc12 [Example 9] | 5.31 | 
2 | CC(Nc1c(-c2ccccc2Cl)c(Cl)nc2c(/C(Cl)=C/C=O)cnn12)C(C)(C)C (centres unmarked) [Example 29] |  | chromatographic logP (acetonitrile/0.1% aqueous phosphoric acid (pH 2.3), read-out: HPLC: log P): 5.98
3 | N#Cc1cnn2c(N3CCOCC3)c(-c3ccc(F)cc3Cl)c(Cl)nc12 [Example 141] | 3.33 | 
4 | CC1CCN(c2c(-c3ccc(F)cc3Cl)c(Cl)nc3c(C=O)cnn23)CC1 [Example 142, 3-formyl-5-chloro-6-(2-chloro-4-fluorophenyl)-7-(4-methylpiperidino)pyrazolo[1,5-a]pyrimidine] |  | chromatographic logP (gradient of acetonitrile/0.1% aqueous phosphoric acid, pH 2.3, heading: HPLC: log P): 4.53
5 | O=Cc1cnn2c(N3CCOCC3)c(-c3ccc(F)cc3Cl)c(Cl)nc12 [Example 143] | 2.94 | 

Further lines, with some results ahead:

Row | chromatographic logP [1] | SMILES | further results
6 | 6.07 | C=Cc1cnn2c(N3CCC(C)CC3)c(-c3ccc(F)cc3Cl)c(Cl)nc12 [Example 1, 3-vinyl-5-chloro-6-(2-chloro-4-fluorophenyl)-7-(4-methylpiperidino)pyrazolo[1 ,5a]pyrimidine] | 
7 | 7.21 | CC(C)/C=C/c1cnn2c(N3CCC(C)CC3)c(-c3ccc(F)cc3Cl)c(Cl)nc12 [Example 10] | 
8 | 3.48 | N#Cc1cnn2c(Cl)c(-c3ccc(F)cc3Cl)c(Cl)nc12 [Example 145, 3-cyano-5,7-dichloro-6-(2-chloro-4-fluorophenyl)pyrazolo[1 ,5-a]pyrimidine] | 
